Results taken from ChEMBL document CHEMBL1143194, “The 1,4-benzodiazepine-2,5-dione small molecule template results in melanocortin receptor agonists with nanomolar potencies” (J Med Chem, 2008).

Assays:
[1] = target: Melanocyte-stimulating hormone receptor (Mus musculus, UniProt Q01727); assay: Agonist activity at mouse MC1R expressed in HEK293 cells assessed as forskolin-stimulated response by beta-galactosidase reporter gene assay; assay type: functional, cell-based
[2] = target: Melanocortin receptor 3 (Mus musculus, UniProt P33033); assay: Agonist activity at mouse MC3R expressed in HEK293 cells assessed as forskolin-stimulated response by beta-galactosidase reporter gene assay; assay type: functional, cell-based
[3] = target: Melanocortin receptor 4 (Mus musculus, UniProt P56450); assay: Agonist activity at mouse MC4R expressed in HEK293 cells assessed as forskolin-stimulated response by beta-galactosidase reporter gene assay; assay type: functional, cell-based
[4] = target: Melanocortin receptor 5 (Mus musculus, UniProt P41149); assay: Agonist activity at mouse MC5R expressed in HEK293 cells assessed as forskolin-stimulated response by beta-galactosidase reporter gene assay; assay type: functional, cell-based
[5] = target: Melanocortin receptor 3 (Mus musculus) (UniProt P33033); assay: Agonist activity at mouse MC3R expressed in HEK293 cells assessed as forskolin-stimulated response at 100 uM by beta-galactosidase reporter gene assay relative to forskolin; assay type: functional, cell-based
[6] = target: Melanocortin receptor 4 (Mus musculus) (UniProt P56450); assay: Agonist activity at mouse MC4R expressed in HEK293 cells assessed as forskolin-stimulated response at 100 uM by beta-galactosidase reporter gene assay relative to forskolin; assay type: functional, cell-based
[7] = target: Melanocortin receptor 5 (Mus musculus) (UniProt P41149); assay: Agonist activity at mouse MC5R expressed in HEK293 cells assessed as forskolin-stimulated response at 10 uM by beta-galactosidase reporter gene assay relative to forskolin; assay type: functional, cell-based
[8] = target: Melanocortin receptor 5 (Mus musculus) (UniProt P41149); assay: Agonist activity at mouse MC5R expressed in HEK293 cells assessed as forskolin-stimulated response at 100 uM by beta-galactosidase reporter gene assay relative to forskolin; assay type: functional, cell-based
[9] = species: Mus musculus; assay: Selectivity for mouse MC1R over mouse MC3R
[10] = species: Mus musculus; assay: Selectivity for mouse MC1R over mouse MC4R
[11] = target: Melanocyte-stimulating hormone receptor (Mus musculus) (UniProt Q01727); assay: Agonist activity at mouse MC1R expressed in HEK293 cells assessed as forskolin-stimulated response at 100 uM by beta-galactosidase reporter gene assay relative to forskolin; assay type: functional, cell-based
Chain of Melanocyte-stimulating hormone receptor (Mus musculus) (Q01727 whole entry, looked up): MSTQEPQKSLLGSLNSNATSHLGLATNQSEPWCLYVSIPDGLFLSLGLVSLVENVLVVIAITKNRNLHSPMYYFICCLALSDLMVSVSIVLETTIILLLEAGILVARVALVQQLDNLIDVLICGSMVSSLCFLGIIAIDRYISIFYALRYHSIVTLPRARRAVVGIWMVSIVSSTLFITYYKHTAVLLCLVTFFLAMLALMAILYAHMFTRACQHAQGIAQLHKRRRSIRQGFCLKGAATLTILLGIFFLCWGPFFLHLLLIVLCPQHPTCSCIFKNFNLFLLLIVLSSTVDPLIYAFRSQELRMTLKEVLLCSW

Chain of Melanocortin receptor 5 (P41149 whole entry): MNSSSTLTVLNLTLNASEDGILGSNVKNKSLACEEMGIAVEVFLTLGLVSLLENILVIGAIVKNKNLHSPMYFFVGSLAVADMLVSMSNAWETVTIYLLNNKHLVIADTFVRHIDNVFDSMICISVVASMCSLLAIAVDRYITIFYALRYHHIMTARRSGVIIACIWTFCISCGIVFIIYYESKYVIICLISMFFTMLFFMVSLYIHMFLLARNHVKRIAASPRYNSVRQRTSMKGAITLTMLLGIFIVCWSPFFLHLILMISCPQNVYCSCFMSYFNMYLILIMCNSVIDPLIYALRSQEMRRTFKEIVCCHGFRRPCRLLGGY
Chain of Melanocyte-stimulating hormone receptor (Q01727 whole entry): as the sequence (Q01727 whole entry, looked up) above
Chain of Melanocortin receptor 3 (P33033 whole entry): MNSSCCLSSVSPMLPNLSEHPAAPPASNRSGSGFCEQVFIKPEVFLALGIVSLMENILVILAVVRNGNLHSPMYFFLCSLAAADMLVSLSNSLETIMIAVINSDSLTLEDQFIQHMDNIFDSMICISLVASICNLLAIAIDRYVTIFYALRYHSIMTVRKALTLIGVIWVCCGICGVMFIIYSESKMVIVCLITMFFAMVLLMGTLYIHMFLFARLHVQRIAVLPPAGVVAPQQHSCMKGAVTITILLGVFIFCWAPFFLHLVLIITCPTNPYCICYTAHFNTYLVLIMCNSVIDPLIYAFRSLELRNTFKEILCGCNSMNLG
Chain of Melanocortin receptor 4 (Mus musculus) (P56450 whole entry): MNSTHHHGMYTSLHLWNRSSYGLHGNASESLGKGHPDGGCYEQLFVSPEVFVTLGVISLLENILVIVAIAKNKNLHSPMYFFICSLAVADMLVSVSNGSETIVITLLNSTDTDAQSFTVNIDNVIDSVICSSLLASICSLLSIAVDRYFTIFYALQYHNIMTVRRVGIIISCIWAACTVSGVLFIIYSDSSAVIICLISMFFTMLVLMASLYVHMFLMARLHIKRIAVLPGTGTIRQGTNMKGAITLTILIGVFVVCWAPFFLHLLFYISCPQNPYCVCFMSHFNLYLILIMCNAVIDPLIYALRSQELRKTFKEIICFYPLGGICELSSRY
Chain of Melanocortin receptor 4 (P56450 whole entry): as above
Chain of Melanocortin receptor 5 (Mus musculus) (P41149 whole entry): as the sequence (P41149 whole entry) above
Chain of Melanocortin receptor 3 (Mus musculus) (P33033 whole entry): as the sequence (P33033 whole entry) above

| SMILES | EC50 [1] | EC50 [2] | EC50 [3] | EC50 [4] | other results |
| --- | --- | --- | --- | --- | --- |
| NCCCCC1NC(=O)c2ccc(Cl)cc2N(Cc2ccccc2)C1=O (stereo not given) | 0.048 µM | 0.32 µM | 0.24 µM | 0.087 µM | – |
| CCCN1C(=O)C(Cc2ccccc2)NC(=O)c2ccccc21 (stereo not given) | 6.9 µM | – | 35 µM | 3.27 µM | Activity [5]: 80% |
| NC(N)=NCCCC1NC(=O)c2ccccc2N(Cc2ccccc2)C1=O (stereo not given) | 16.4 µM | > 100 µM | > 100 µM | > 100 µM | – |
| NCCCCC1NC(=O)c2ccc(Cl)cc2N(Cc2ccc3ccccc3c2)C1=O (stereo not given) | 3.4 µM | – | – | – | Activity [5]: 30%; Activity [6]: 30%; Activity [7]: 65% |
| O=C1NC(Cc2ccccc2)C(=O)N(Cc2ccc3ccccc3c2)c2cc(Cl)ccc21 (stereo not given) | 4.7 µM | 23.3 µM | – | 4.35 µM | Activity [6]: 70% |
| O=C1NC(Cc2ccccc2)C(=O)N(Cc2ccccc2-c2ccccc2)c2ccccc21 (stereo not given) | 0.23 µM | 4.16 µM | 1.97 µM | – | Activity [8]: 60%; Ratio EC50 [9]: 18; Ratio EC50 [10]: 9 |
| O=C1NC(Cc2c[nH]c3ccccc23)C(=O)N(Cc2ccccc2)c2ccccc21 (stereo not given) | – | > 100 µM | > 100 µM | > 100 µM | Activity [11]: 70% |
| NC(N)=NCCCC1NC(=O)c2ccc(Cl)cc2N(Cc2ccccc2)C1=O (stereo not given) | 1.8 µM | 30.6 µM | – | 17 µM | – |
| O=C1NC(Cc2ccccc2)C(=O)N(Cc2ccccc2)c2ccccc21 (stereo not given) | 32.9 µM | > 100 µM | > 100 µM | > 100 µM | – |
| CCCCN1C(=O)C(Cc2ccccc2)NC(=O)c2ccccc21 (stereo not given) | – | > 100 µM | > 100 µM | > 100 µM | Activity [11]: 70% |
| N=C(N)NCCCC1NC(=O)c2ccc(Cl)cc2N(Cc2ccccc2)C1=O (stereo not given) | – | – | – | – | Activity [6]: 60% |
| O=C1NC(Cc2c[nH]c3ccccc23)C(=O)N(Cc2ccc3ccccc3c2)c2cc(Cl)ccc21 (stereo not given) | > 100 µM | > 100 µM | > 100 µM | > 100 µM | – |
| Cc1cccc2c1N(Cc1ccccc1)C(=O)C(Cc1cn(Cc3ccccc3)c3ccccc13)NC2=O (stereo not given) | 21.6 µM | > 100 µM | > 100 µM | > 100 µM | – |
